Test results taken from patent publication EP1172443A1, “METHOD FOR SCREENING CYSTEINE PROTEASE INHIBITOR” (YAMANOUCHI PHARMACEUTICAL CO. LTD., priority 1999, dated 2000).
Peptide text beside a SMILES is read from it. * marks the point of attachment. Cbz = O=C(OCc1ccccc1)*; CH2F = FC*

Experiments:
caspase 3 [1] = biological target: T1, caspase 3 (Homo sapiens, UniProt P42574); assay: Screening method of caspase 3 inhibitor, in the presence of zinc ion (substrate solution containing 3 mM ZnSO4); type: biochemical; conditions: for IC50: in the presence of zinc ion; for ratio (enzyme activity (+Zn)/enzyme activity (-Zn)): test compound 100 µM, 25 ng/100 µL human caspase 3, reaction time 15 minutes
T1 construct: the N-terminal region encoding a protein with a molecular weight of about 17 kDa (p17); C-terminal region encoding a protein with a molecular weight of about 12 kDa (p12); made in house; host or cells: Escherichia coli BL21 (DE3) pLysS, plasmid pET3a
T1 sequence (P42574 29-175 limits assumed): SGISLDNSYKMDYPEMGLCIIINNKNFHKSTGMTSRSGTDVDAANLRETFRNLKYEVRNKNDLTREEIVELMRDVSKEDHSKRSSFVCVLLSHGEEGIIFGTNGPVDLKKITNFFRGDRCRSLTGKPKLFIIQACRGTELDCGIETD
T1 sequence (P42574 176-277 limits assumed): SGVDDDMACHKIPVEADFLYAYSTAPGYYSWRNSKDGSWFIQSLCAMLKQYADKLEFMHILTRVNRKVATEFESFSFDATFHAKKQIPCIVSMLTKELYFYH
Description: (§1) From human brain cDNA, the N-terminal region encoding a protein with a molecular weight of about 17 kDa (p17) and C-terminal region encoding a protein with a molecular weight of about 12 kDa (p12) were amplified by PCR, and then subcloned into an Escherichia coli expression plasmid (pET3a). Using these plasmids, a host bacterium for expressing proteins (BL21 (DE3) pLysS) was transformed. Then, the transformed bacterium was cultured in M9 medium and an active caspase 3 was prepared. Firstly, fungus body recovered from M9 medium was broken by sonication and an inclusion body was recovered by centrifugation. The inclusion body was solubilized under denatured conditions using 3M guanidine solution, and after mixing with p17 polypeptide and p12 polypeptide, diluted with a dialysis solution. The whole was left at room temperature for 1 hour at this situation, and after regeneration, concentrated. After the sample was dialyzed to exchange the buffer solution, insoluble proteins were removed by ultracentrifugation (100,000 X G, 30 minutes). Upon quantitative protein determination, about 30 mg of a protein was recovered.
Solution A comprising composition of 50 mM HEPES, pH 7.5, 10% (w/v) saccharose, and 0.1% (w/v) 3-[(3-cholamidopropyl)dimethylammonio]-1-propane sulfonate (CHAPS) was used as the base of a liquid for enzymatic reaction with adding a test compound, if necessary. […] In a control experiment, caspase 3 mixed with DMSO instead of the test compound was used. Then, 100 µL of 50 µM Ac-Asp-Glu-Val-Asp-MCA (Solution A, Peptide Kenkyusyo, 3171-v) as a substrate solution were added thereto to start reaction. Time course of the decomposition of the substrate were measured on a fluorescent photometer (Corona Denki, MTP-32, excitation wavelength/360 nm, emission waverangeth/450 nm or SLT, fluostar, excitation wavelength/380 nm, emission wavelength/460 nm) and an enzyme activity of the test compound-added group relative to the control was calculated.
(§2) The effects of the test compound at various concentrations on the enzyme activity were measured in a similar manner to the case in the absence of zinc ion as described in the section 1). However, a substrate solution containing 3 mM ZnSO4 was used.
The enzyme activities calculated in the absence of zinc ion (-Zn) and in the presence of zinc ion (+Zn) were compared (enzyme activity (+Zn)/enzyme activity (-Zn)).

caspase 3 [2] = biological target: T1, caspase 3; assay: Screening method of caspase 3 inhibitor, in the absence of zinc ion (fluorogenic substrate Ac-Asp-Glu-Val-Asp-MCA); type: biochemical; conditions: for inhibition at 100 µM: at 100 µM in the absence of zinc ion, read-out: enzyme activity inhibited
Description: as §1
Solution A comprising composition of 50 mM HEPES, pH 7.5, 10% (w/v) saccharose, and 0.1% (w/v) 3-[(3-cholamidopropyl)dimethylammonio]-1-propane sulfonate (CHAPS) was used as the base of a liquid for enzymatic reaction with adding a test compound, if necessary. A 10 ng/100 µL human caspase 3 solution (Solution B: Solution A + 10 mM dithiothreitol (DTT)) and a test compound at different concentrations were mixed and the mixture was left at room temperature for 30 minutes. In a control experiment, caspase 3 mixed with DMSO instead of the test compound was used. […] Time course of the decomposition of the substrate were measured on a fluorescent photometer (Corona Denki, MTP-32, excitation wavelength/360 nm, emission waverangeth/450 nm or SLT, fluostar, excitation wavelength/380 nm, emission wavelength/460 nm) and an enzyme activity of the test compound-added group relative to the control was calculated.

caspase 3 [3] = biological target: T1, caspase 3; assay: Examination of caspase 3 inhibitory mode in the presence of zinc (Lineweaver-Burk plots); type: biochemical
Description: Solution A comprising composition of 50 mM HEPES, pH 7.5, 10% (w/v) saccharose, and 0.1% (w/v) 3-[(3-cholamidopropyl)dimethylammonio]-1-propane sulfonate (CHAPS) was used as the base of a liquid for enzymatic reaction with adding a test compound, if necessary. A 10 ng/100 µL human caspase 3 solution (Solution B: Solution A + 10 mM dithiothreitol (DTT)) and a test compound at different concentrations were mixed and the mixture was left at room temperature for 30 minutes. In a control experiment, caspase 3 mixed with DMSO instead of the test compound was used. Then, 100 µL of 50 µM Ac-Asp-Glu-Val-Asp-MCA (Solution A, Peptide Kenkyusyo, 3171-v) as a substrate solution were added thereto to start reaction. Time course of the decomposition of the substrate were measured on a fluorescent photometer (Corona Denki, MTP-32, excitation wavelength/360 nm, emission waverangeth/450 nm or SLT, fluostar, excitation wavelength/380 nm, emission wavelength/460 nm) and an enzyme activity of the test compound-added group relative to the control was calculated.
as §2
The caspase 3 inhibitory mode of Compound A in the presence of zinc was examined according to the methods 1) and 2) of Example 3. […] The inhibitory mode was analyzed with Lineweaver-Burk plots (double reciprocal plots).
The caspase 3 inhibitory mode of Compound B in the presence of zinc was examined according to the methods 1) and 2) of Example 3. […] The inhibitory mode was analyzed with Lineweaver-Burk plots (double reciprocal plots).
The caspase 3 inhibitory mode of Compound C in the presence of zinc was examined according to the methods 1) and 2) of Example 3. […] The inhibitory mode was analyzed with Lineweaver-Burk plots (double reciprocal plots).

rat hippocampal neuron = assay: Apoptosis inhibitory action: suppression of DNA fragmentation induced by Etoposide; type: cell-based
Description: Cultured rat hippocampal neuron was prepared according to a usual method (Neurochem. Int., 31(5), 715-722, 1997). Brain was taken out of a fetus of rat at day 19 of gestation, and hippocampus was picked up under a stereomicroscope. The hippocampus was treated with an enzyme, dispersed by pipetting several times, and cell clusters were removed through a filter to prepare a cell suspension. The cell was cultured at a concentration of 1.2 x 10^5 cells/cm^2 in a 12-well plate coated with polylysine. A "culture medium for neuron" manufactured by Sumitomo Bakelite Co., Ltd. was used as the culture liquid. The neuronal cell at 13 to 16 days of culture was used. Etoposide was employed for inducing apoptosis of the neuronal cell. The induction of DNA fragments was evaluated as a marker of apoptosis.
Cell stimulation was carried out by replacing the cell culture medium with a serum-free medium containing 3 µg/mL Etoposide. After 6 hours from the start of the stimulation, the cell was recovered. TaKaRa ApopLadder Ex kit was used for the extraction of fragmented DNA. The fragmented DNA were subjected to electrophoresis followed by staining with CYBR Green, and the fluorescence intensity of the DNA was measured by means of a scanner manufactured by Molecular Dynamics Co.

| SMILES | caspase 3 inhibitory mode (caspase 3 [3]) | ratio (enzyme activity (+Zn)/enzyme activity (-Zn)) (caspase 3 [1]) | IC50 (caspase 3 [1]) | inhibition at 100 µM (caspase 3 [2]) | also measured |
| --- | --- | --- | --- | --- | --- |
| COC(=O)C[C@H](NC(=O)[C@H](C)NC(=O)[C@@H](NC(=O)OCc1ccccc1)C(C)C)C(=O)CF [z-VAD.FMK, z-Val-Ala-Asp(OMe)-CH2F, reference compound] (Cbz-Val-Ala-Asp(OMe)-CH2F) |  |  |  |  | effect of zinc ion on the caspase 3 inhibitory activity (caspase 3 [1]; comparison of presence and absence of zinc ion): no remarkable enhancing effect; IC50 (caspase 3 [1]; reaction time 30 minutes): 550 nM; IC50 (caspase 3 [2]; in the absence of zinc ion, reaction time 30 minutes): 510 nM |
| CCCN1C(=O)C2(Oc3c(c(=O)n(CCC)c4ccccc34)S2)C(=O)c2ccccc21 (centres unmarked) [Compound D] |  |  | 350 nM | 13% | apoptosis inhibitory action (rat hippocampal neuron; at a concentration of 33.3 µM, added together with Etoposide): strong apoptosis inhibitory action |
| ON=C(c1nc2ccccc2[nH]1)c1nc2ccccc2[nH]1 [Compound B, bis(1H-benzimidazol-2-yl)ketone oxime] | substrate-competitive and reversible | 0.44 |  |  |  |

Now from value to molecule, other results behind:

| caspase 3 inhibitory mode (caspase 3 [3]) | ratio (enzyme activity (+Zn)/enzyme activity (-Zn)) (caspase 3 [1]) | SMILES | IC50 (caspase 3 [1]) | inhibition at 100 µM (caspase 3 [2]) | also measured |
| --- | --- | --- | --- | --- | --- |
| substrate-competitive and reversible |  | CCCN1C(=O)C2(Oc3c(c(=O)n(CCC)c4ncccc34)S2)C(=O)c2cccnc21 (centres unmarked) [Compound C, 1,5'-dipropylspiro[1,8-naphthyridine-3(2H),2'-[1,3]oxathiolo[4,5-c][1,8]naphthyridine]-2,4,4' (1H,5'H)-trione] | 1200 nM | 17% | IC50 (rat hippocampal neuron; Rattus norvegicus, Hippocampal neuron, 3 µg/mL Etoposide, 6 hours, compound at 10, 25, 50 µM, no zinc added to medium): 17000 nM |
| substrate-competitive and reversible | 0.37 | c1ccc2[nH]c(Cc3nc4ccccc4[nH]3)nc2c1 [Compound A, bis(1H-benzimidazol-2-yl)methane] |  |  |  |
